target: T1, Recombinant full length human OGA enzyme (Homo sapiens, UniProt O60502); assay: OGA Enzyme Inhibition Biochemical Assay; settings: 1 nM OGA, 100 μM 4-MUGlcNAc (Km), pH 6.4, 90 minutes at room temperature, 10-point dose-response from 20 μM
T1 construct: Recombinant full length human OGA enzyme was purchased from Origene; purchased Origene
T1 sequence (O60502 1-916): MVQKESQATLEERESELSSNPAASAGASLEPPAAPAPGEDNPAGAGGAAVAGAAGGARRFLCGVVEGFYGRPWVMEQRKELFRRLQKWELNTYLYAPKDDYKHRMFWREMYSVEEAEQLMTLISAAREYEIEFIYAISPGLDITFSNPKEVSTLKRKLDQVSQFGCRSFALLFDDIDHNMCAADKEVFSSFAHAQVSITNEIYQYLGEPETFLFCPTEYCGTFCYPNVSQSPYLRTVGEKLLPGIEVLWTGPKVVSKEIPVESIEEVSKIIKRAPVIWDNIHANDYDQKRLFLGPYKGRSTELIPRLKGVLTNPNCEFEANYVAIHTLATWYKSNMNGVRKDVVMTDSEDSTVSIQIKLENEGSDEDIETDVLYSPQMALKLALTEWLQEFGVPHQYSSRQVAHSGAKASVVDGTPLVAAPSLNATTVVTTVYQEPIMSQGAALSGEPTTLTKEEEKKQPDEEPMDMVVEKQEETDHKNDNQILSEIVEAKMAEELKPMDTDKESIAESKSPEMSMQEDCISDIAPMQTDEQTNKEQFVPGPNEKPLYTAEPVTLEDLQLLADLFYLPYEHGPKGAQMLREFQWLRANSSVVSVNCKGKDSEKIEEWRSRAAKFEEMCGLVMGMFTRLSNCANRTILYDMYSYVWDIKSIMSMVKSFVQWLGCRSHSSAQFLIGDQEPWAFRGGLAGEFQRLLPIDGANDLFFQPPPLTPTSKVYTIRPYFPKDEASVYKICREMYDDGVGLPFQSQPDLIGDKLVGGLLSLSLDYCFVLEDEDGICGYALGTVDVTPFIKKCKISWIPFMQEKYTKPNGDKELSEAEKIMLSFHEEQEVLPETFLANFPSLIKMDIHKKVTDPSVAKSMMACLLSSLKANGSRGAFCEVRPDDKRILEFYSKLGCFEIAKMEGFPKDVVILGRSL
Outline: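 Full-length human OGA at 1 nM with 100 μM 4-MUGlcNAc (Km) in McIlvaine buffer pH 6.4 plus 0.01% BSA, 90 min at room temperature, then glycine pH 10 quench. Fluorescence read at Ex 355/Em 460 nm. 10-point, 4-fold dose-response from 20 μM, 4-parameter variable-slope fit.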

Compound	IC50 [nM]
COc1cc(C[C@H]2CCN(Cc3sc(NC(C)=O)nc3F)C2)ncn1 [Example 3-31, (R)-N-(4-fluoro-5-((3-((6-methoxypyrimidin-4-yl)methyl)pyrrolidin-1-yl)methyl)thiazol-2-yl)acetamide]	14
CC(=O)Nc1ncc(CN2CCC(Cc3cccc(F)c3)C2)s1 (stereo not drawn) [Example 1-16, N-(5-((3-(3-fluorobenzyl)pyrrolidin-1-yl)methyl)thiazol-2-yl)acetamide]	270
CC(=O)Nc1ncc(CN2CCC(Cc3ccccn3)C2)s1 (stereo not drawn) [Example 2-15, N-(5-((3-(pyridin-2-ylmethyl)pyrrolidin-1-yl)methyl)thiazol-2-yl)acetamide]	84

Stronger by IC50, values ahead:

IC50 [nM]	Compound
9.2	CC(=O)Nc1nc(F)c(CN2C[C@@H](Cc3ncc(F)cn3)CC[C@@H]2C)s1 [Example 2-53, N-(4-fluoro-5-(((2S,5R)-5-((5-fluoropyrimidin-2-yl)methyl)-2-methylpiperidin-1-yl)methyl)thiazol-2-yl)acetamide]
4	CC(=O)Nc1ncc(CN2CCCC(Cc3cncs3)C2)s1 (stereo not drawn) [Example 1-37, N-(5-((3-(thiazol-5-ylmethyl)piperidin-1-yl)methyl)thiazol-2-yl)acetamide]
1.6	CC(=O)Nc1nc(F)c(CN2C[C@H](Cc3noc(C)n3)CC[C@@H]2C)s1 [Example 4-15, N-(4-fluoro-5-(((2S,5S)-2-methyl-5-((5-methyl-1,2,4-oxadiazol-3-yl)methyl)piperidin-1-yl)methyl)thiazol-2-yl)acetamide]

Source: US11459324B2, “O-glycoprotein-2-acetamido-2-deoxy-3-D-glycopyranosidase inhibitors” (BIOGEN MA INC., priority 2018, dated 2022)
